According to patent US20100260785A1, “SARP-1 Fusion Proteins and Uses Thereof” (priority 2007, published 2010):
“Also recorded” adds a separate entry of the source.

What was measured:
[1] = system: B16F1 (mouse melanoma) cell line; test: MTT cell proliferation assay, B16F1; type: cell-based
Procedure: (§1) The cell line B16F1 (mouse melanoma) were cultivated in DMEM+10% serum and seeded at 5000 cells/well in a total volume of 50 μl. The SW480 and SW620 (human colon carcinoma) cell lines were cultivated in L15 medium+10% fetal bovine serum and seeded at 20,000 cells per well in a total volume of 50 μl. SARP-1(Fz)delta7-Fc was added immediately at a concentration of 1, 3 or 6 μM.
(§2) Cell proliferation assay was evaluated by reduction of 3-(4,5-dimethylthiazol-2-yl)-2,5-diphenyltetrazolium bromide (MTT) after 24, 48, 72 and 96 hours of culture. For the test of cell proliferation, 5 μl and 10 μl of MTT solution were added to the cultures of B16F1, SW480 and SW620 cells, respectively. After the incubation period, cells were lysed in 200 μl DMSO, and optic density was determined at 570 and 630 nm. The positive control for inhibition of cell proliferation was DKK1-Fc used at a concentration of 1 μM during the experiment.

[2] = system: unilateral ureter ligation-induced renal fibrosis; test: Unilateral ureter obstruction (UUO) murine model of renal fibrosis; type: in vivo, C57BL/6 mice; conditions: subcutaneous, 1.5 mg/ml, once a day, 21 days of treatment; p<0.05
Procedure: The in vivo activity of SARP-1(Fz)[…]-Fc was tested in an experimental model of obstructive nephropathy, which is unilateral ureter ligation-induced renal fibrosis (Vielhauer et al., 2001). Female inbred C57BL/6 mice weighing 20 to 26 g were kept in macrolone type III cages under a 12 h light/dark cycle. Water and standard chow were available ad libitum. Under general ether anesthesia, a low midline abdominal incision was performed and the ligation of the left distal ureter was made with a 2/0 Mersilene suture, resulting in a unilateral ureter obstruction (UUO). Unobstructed contralateral kidneys served as controls. […] The first dose was administered immediately after UUO once a day for 21 days Mice were killed at 7 and 21 days after UUO by cervical dislocation under general anesthesia with inhaled ether. From each mouse cranial kidney halves were used for histological assessment. Ligated and contralateral kidney tissue was fixed for 24 hours at room temperature in 4% neutral buffered formalin and then embedded in paraffin. For quantitative analysis, 4 μm horizontal sections were cut. Every fifth of fifteen subsequent sections, chosen by systematic uniformly random sampling, was used for analysis. […]

[3] = system: SW480 (human colon carcinoma) cell line; test: MTT cell proliferation assay, SW480; type: cell-based; conditions: 1, 3 or 6 μM; MTT after 24, 48, 72 and 96 hours
Procedure: as §1, §2

[4] = system: murine Wnt1 and human Wnt2; test: Wnt antagonistic activity, LEF-luciferase reporter assay with mixed Inducer and Reporter 293T cells; type: cell-based
Procedure: 293T cells expressing murine Wnt1 and human Wnt2 (Inducer Cells) and 293T cells expressing Luciferase under the control of LEF-site-linked promoter (Reporter Cells) were mixed at an equal ratio and seeded in 100 μl medium per well in a 96-well microtiter plate. The Inducer Cells by overexpressing Wnt1 and Wnt2 at its surface were able to induce an activation of the Wnt signaling pathway triggered by the interaction of the Wnt proteins with its receptor at the cell membrane of the Reporter Cells. The Reporter Cells in response to Wnt pathway activation expressed luciferase by the activation of Wnt responsive genes such as LEF.
The mixture was composed of about 10,000 Inducer Cells and 10,000 Reporter Cells per well. SARP-1(Fz)delta7-Fc was added to the culture medium at different concentrations (from 300 to 5 μg/ml). After 48 hours of incubation, the medium was discarded, and 40 μl lysis buffer were added to the cells. After 15 minutes of lysis on an orbital shaker at 4° C., the samples were submitted to two cycles of freezing and thawing followed by rigid shaking using a vortex (for 2 minutes) and sedimentation by centrifugation at 2000 rpm in V-shape microtiter plates.
Luciferase activities were normalized by total protein content in the lysate. Protein quantification was performed on 5 μl cell lysate using the BCA kit (Pierce) as known in the art. To measure the luciferase activity, 10 μl of cell lysate each was transferred into a 96-well microtiter plate. 15 μl of luciferin reagent was added to the sample and the quantification of the luminescence was counted during 10 seconds.
The results were expressed in percentage of Wnt activation. Thus, the maximal luciferase activity obtained with the mixture of Inducer and Reporter Cells corresponded to 100%.

[5] = system: human hepatic stellate cells; test: Incorporation of 3H-thymidine into DNA of PDGF-BB-stimulated primary human hepatic stellate cells; type: cell-based; conditions: PDGF-BB 10 ng/ml; 10, 1 and 0.1 μg/ml
Procedure: (§3) Human hepatic stellate cells (HSCs) were isolated from wedge sections of normal human liver unsuitable for transplantation. Liver tissue was digested with collagenase/pronase. HSC were separated from other liver nonparenchymal cells by ultracentrifugation over gradients of Stractan (Cellsep isotonic solution; Larex Inc., St. Paul, Minn.). HSC were cultured on plastic culture dishes in Iscove's modified Dulbecco's medium supplemented with 0.6 U/mL of insulin, 2.0 mmol/L of glutamine, 0.1 mmol/L of nonessential amino acids, 1.0 mmol/L of sodium pyruvate, antibiotic-antimycotic solution (all provided by Gibco Laboratories, Grand Island, N.Y.), and 20% fetal bovine serum (Imperial Laboratories, Andover, UK). All experiments were performed in triplicate and results are expressed as MEAN+SD. Statistical significance was evaluated by Student t test.
(§4) For this group of experiments the stimulus of choice was human recombinant PDGF-BB at the standard dose of 10 ng/ml. Canrenone (10 μM), whose inhibitory effect has been previously shown in the same cell preparations (Caligiuri et al., 2003), was used as a positive control of inhibition.
HSC were plated in 24 well plastic dishes and grown to confluence in complete cell culture medium containing 20% of fetal bovine serum (FBS). HSC were then deprived of serum for 48 hours and stimulated with PDGF-BB for additional 24 hours. […]

[6] = system: human hepatic stellate cells; test: Cell proliferation assay (cell number/well) of PDGF-BB-stimulated primary human hepatic stellate cells; type: cell-based
Procedure: as §3, §4
HSC were plated in 12 well dishes at 30% confluence in Iscove's modified Dulbecco's medium supplemented with 0.6 U/mL insulin, 2.0 mmol/L of glutamine, 0.1 mmol/L nonessential amino acids, 1.0 mmol/L of sodium pyruvate, antibiotic-antimycotic solution (all from Gibco Laboratories, Grand Island, N.Y.), and 20% fetal bovine serum (Imperial Laboratories, Andover, UK). After 24 hours the HSC were incubated with serum-free medium containing PDGF-BB to induce activation at a concentration of 10 ng/ml with or without SARP-1(Fz)delta7-Fc at a concentration of 10, 1 and 0.1 μg/ml. HSC were harvested and cell number/well were determined after 2, 4, and 6 days of culture. At each time point fresh medium and experimental conditions were added at the remaining wells.

[7] = system: SW620 (human colon carcinoma) cell line; test: MTT cell proliferation assay, SW620; type: cell-based; conditions: 1, 3 or 6 μM; MTT after 24, 48, 72 and 96 hours
Procedure: as §1, §2

[8] = system: lung fibroblasts of patients with interstitial pulmonary fibrosis (IPF); test: BrdU incorporation (cell proliferation ELISA) in primary lung fibroblasts from IPF patients; type: cell-based, human; conditions: for PDGF-increased BrdU incorporation: PDGF 10 ng/ml
Procedure: To evaluate the effect of SARP-1(Fz)delta7-Fc, lung fibroblasts were obtained from lung explants of patients with interstitial pulmonary fibrosis (IPF) (N=3) and controls (N=3). Fibroblasts were cultured in 96 well cell culture plates in DMEM medium with high glucose (25 mM) and 10% Fetal Clone II (Hyclone) until they reached approximately 50% confluence. Fetal Clone II is an alternative to fetal bovine serum (FBS). Then the cells were cultured for 48 hours with Fetal Clone II at a concentration of 1%. […] Bromodeoxyuridine (5-bromo-2-deoxyuridine, BrdU) was added 24 hours later at a final concentration of 100 μM. After 24 hours of incubation, cells were fixed and lysed. Cell proliferation was evaluated with the cell proliferation ELISA BrdU colorimetric assay (Roche Diagnostics, Meylan, France) ELISA. The experiments were performed in the basal condition (without PDGF) and in the presence of PDGF (10 ng/ml), All experimental conditions were tested in triplicates and the mean value was calculated. For each experimental condition, the incorporation of BrdU was expressed as a percentage of the incorporation observed in the control condition in the same culture.

Substance: SARP-1(Fz)delta7-Fc: Fusion of mature SARP-1 without Netrin domain, lacking first seven N-terminal amino acids, with human IgG1 Fc region
- level of inhibition of B16F1 proliferation compared with positive control DKK1-Fc (1 μM) ([1]; 6 μM): comparable to the one obtained by using the positive control
- inhibition of proliferation of B16F1 melanoma cell line ([1]; 1 to 6 μM, MTT after 24, 48, 72 and 96 hours): significant inhibition; also recorded: inhibited cell proliferation
- alfa smooth muscle actin (α-SMA) accumulation, myofibroblast marker, histological analysis [2]: reduction; also recorded: decreased
- renal fibrosis by morphometric analysis of the changes in the tubular interstitium [2]: reduction of renal fibrosis
- inhibition of cell proliferation of SW480 [3]: able to inhibit the cell proliferation; also recorded: inhibited cell proliferation
- IC50 ([4]; 48 hours incubation, 300 to 5 μg/ml, read-out: IC50, reduction of luciferase activity): 0.75 µM
- Emax reached, inhibition of Wnt 1 and Wnt 2 activation ([4]; FIG. 3 legend): 80%
- EC50 ([4]; FIG. 3 legend, read-out: EC50, inhibition of Wnt 1 and Wnt 2 activation in a reporter cellular assay): 0.75 µM
- maximum inhibition of luciferase activity ([4]; at concentration from 150 to 300 μg/ml): 80%
- PDGF-induced DNA synthesis in primary human hepatic stellate cells cultures [5]: reduced significantly
- inhibitory effect on PDGF-induced hepatic stellate cells ([6]; 10.0 μg/ml after 2, 4 and 6 days of culture): more prominent
- PDGF-induced cell growth of hepatic stellate cells ([6]; 10.0 μg/ml for 2, 4 or 6, PDGF-BB 10 ng/ml): significantly decreased
- inhibitory effect on PDGF-induced hepatic stellate cells ([6]; dose of 1 μg/ml after 2 days of culture): statistically significant
- inhibition of cell proliferation of SW620 [7]: able to inhibit the cell proliferation; also recorded: inhibited cell proliferation
- PDGF-increased BrdU incorporation ([8]; 1 μg/ml): no effect
- PDGF-increased BrdU incorporation ([8]; 10 μg/ml): no effect
- PDGF-increased BrdU incorporation ([8]; 100 μg/ml): profoundly inhibited
- PDGF-increased BrdU incorporation ([8]; concentration not given): reduced BrdU incorporation
- BrdU incorporation, basal condition ([8]; without PDGF, in b213 at the highest dose tested): reduced BrdU incorporation
